Source: PMC7126545 (Bioorganic & Medicinal Chemistry Letters, 2016)

Legend:
[1] = system: L1210, CEM and HeLa cells; details: for cytostatic activity (in words): tumour cell lines
in vitro [2] = details: mouse (L1210), human (CEM, HeLa)
in vitro [3] = assay: in vitro

| SMILES | cytostatic activity (in words) [1] | IC50 (in vitro [2]) [µM] | CC50 (in vitro [3]) [µM] | times less potent than EAdo ([1]; cytostatic potency relative to EAdo in the three cell lines) |
| --- | --- | --- | --- | --- |
| C#C[C@@]1(O)[C@@H](CO)O[C@@H](n2cnc3c(N)ncnc32)[C@@H]1O [Compound 1, 3′-C-ethynyladenosine, reference compound] | potent cytostatic activity |  |  |  |
| C#C[C@@]1(O)[C@@H](CO)O[C@@H](n2cnc3c(N)nc(Cl)nc32)[C@@H]1O [Compound 7] | did not show any cytostatic activity |  |  |  |
| C#C[C@@]1(O)[C@@H](CO)O[C@@H](n2cnc3c(NCc4cccc(Cl)c4)nc(Cl)nc32)[C@@H]1O [Compound 10] |  | 22 to 50 | 34.5 | at least 30 |
